{
  "source": "patent US11357769B2",
  "about": "“Drug combinations for reducing cell viability and/or cell proliferation” (Eisai R&D Management Co., Ltd., priority 2016, dated 2022)",
  "tested_on": "Hep3B xenograft",
  "test": "Antitumor activity in Hep3B xenograft model of hepatocellular carcinoma",
  "type": "in vivo, mice",
  "details": "17 days",
  "procedure": "The human hepatocellular cancer cell line Hep3B was cultured in RPMI1640 medium containing 10% fetal bovine serum at 37° C. in a 5% CO2 atmosphere and kept in exponential growth phase. […] When the mean tumor volume (TV) reached approximately 170 mm^3 (10 days after implantation), 56 mice were selected based on their TVs, and were sorted into 7 treatment groups with 8 animals per group. […] Body weights were measured daily and tumor measurements were performed twice weekly.\n[formula] where Day X is any day of measurement.\nThe anti-tumor effects of the treatment, Partial (PR) and complete regression (CR), stable (SD) and progressive (PD) disease were defined by the H3 Xenograft Model Response Criteria (Appendix 4). […] The relative body weight changes were analyzed by two way ANOVA followed by Dunnett's post hoc.",
  "data": [
    {"smiles": "C=CC(=O)Nc1cc(N2CCN(CC)CC2)ccc1Nc1cc(N(C)C(=O)Nc2c(Cl)c(OC)cc(OC)c2Cl)ncn1", "note": "[Compound 1, N-(2-((6-(3-(2,6-dichloro-3,5-dimethoxyphenyl)-1-methylureido)pyrimidin-4-yl)amino)-5-(4-ethylpiperazin-1-yl)phenyl)acrylamide]", "values": [
      {"measurement": "Tumor Growth Inhibition (TGI)", "setting": "Compound 1 single agent 100 mg/kg PO", "value": 16, "unit": "%"},
      {"measurement": "Tumor Growth Inhibition (TGI)", "setting": "Compound 1 single agent 300 mg/kg PO, p<0.05 vs vehicle", "value": 64, "unit": "%"}
    ]}
  ]
}
